One test deals with PTEN expression. The test can be described thus: Quantitative RT-PCR of PTEN expression in KILLIN-methylated patient lymphoblastoid cell lines after demethylation and/or histone deacetylase inhibition treatment. It counts as cell-based, human. The note with it: seven of the eight patient lymphoblastoid cell lines; decitabine 0.5 μM and/or TSA 200 nM; pooled result for demethylation and/or inhibition of histone deacetylation. Here is the method: (§1) The quantitative reverse transcription PCRs were performed as previously described. Bennett et al., Cancer Res.; 67(10): 4657-4664 (2007). The study population included four controls and eight patients that were selected based on confirmed methylation status by bisulfite sequencing analysis and representation of the Cowden syndrome and Cowden-like syndrome condition.
(§2) The study population included eight patients that were selected based on confirmed methylation status by bisulfite sequencing analysis and representation of Cowden syndrome and Cowden-like syndrome condition. Demethylation treatment was performed with a cytosine analog, 5-aza-2′deoxycytidine (decitabine; Sigma), for 96 hours at 0.5 μM concentration with approximately 40% confluent suspension lymphoblastoid cells. Inhibition of histone deacetylation was performed with 200 nM concentration of Trichostatin A (TSA; Sigma) with approximately 40% confluent suspension lymphoblastoid cells for 48 hours, with or without 0.5 μM decitabine. The drug was changed daily, and the cells were collected for RNA isolation.

For a further test, the system named is KILLIN expression. The test can be described thus: Quantitative RT-PCR of KILLIN expression in KILLIN-methylated patient lymphoblastoid cell lines after demethylation and/or histone deacetylase inhibition treatment. It is filed as cell-based, human. The note with it: pooled result for decitabine and/or TSA; for patient cell lines in which KILLIN expression was restored: 7 of the 8 patient lymphoblastoid cell lines, decitabine 0.5 μM and/or TSA 200 nM; for KILLIN expression increase following exposure to decitabine and/or TSA: patient lymphoblastoid cell lines, decitabine 0.5 μM 96 hours and/or TSA 200 nM 48 hours, normalized to untreated counterpart set as 1, 95% confidence interval 1.4-18.1. Here is the method: as §1, §2

This note sets out measurements from patent US9458505B2, “Diagnosis of cowden and cowden-like syndrome by detection of decreased killin expression” (The Cleveland Clinic Foundation, priority 2011, dated 2016).

As for `Nc1ncn([C@H]2C[C@H](O)[C@@H](CO)O2)c(=O)n1` [decitabine, 5-aza-2′deoxycytidine], in the test with PTEN expression, the “patient cell lines with significant decrease in PTEN expression” value is reported as 88%. In addition, in the test with KILLIN expression, the “patient cell lines in which KILLIN expression was restored” value turned out to be 88% and the “KILLIN expression increase following exposure to decitabine and/or TSA” value is recorded as 4.88 fold.
`CC(/C=C/C(=O)NO)=C\[C@@H](C)C(=O)c1ccc(N(C)C)cc1` [TSA, Trichostatin A]: the “patient cell lines with significant decrease in PTEN expression” value with PTEN expression worked out at 88%. For the same compound, in the test with KILLIN expression, the “patient cell lines in which KILLIN expression was restored” value came to 88% and the “KILLIN expression increase following exposure to decitabine and/or TSA” value is 4.88 fold.
